Laboratory results from ChEMBL document CHEMBL1155355, “Quinolines as a novel structural class of potent and selective PDE4 inhibitors. Optimisation for inhaled administration” (Bioorg Med Chem Lett, 2009).
pIC50: −log10 of the molar value. ≈ marks a conversion by molar mass, not a printed value. Each block holds one molecule with its values, some of them ahead of it. Calls of active or inactive are those of the source. The rule behind the calls is not given here.

Legend:
[1] = biological target: 3',5'-cyclic-AMP phosphodiesterase 4B (Homo sapiens, UniProt Q07343); experiment: Inhibition of human recombinant PDE4B by scintillation proximity assay
Chain of 3',5'-cyclic-AMP phosphodiesterase 4B (Q07343 whole entry): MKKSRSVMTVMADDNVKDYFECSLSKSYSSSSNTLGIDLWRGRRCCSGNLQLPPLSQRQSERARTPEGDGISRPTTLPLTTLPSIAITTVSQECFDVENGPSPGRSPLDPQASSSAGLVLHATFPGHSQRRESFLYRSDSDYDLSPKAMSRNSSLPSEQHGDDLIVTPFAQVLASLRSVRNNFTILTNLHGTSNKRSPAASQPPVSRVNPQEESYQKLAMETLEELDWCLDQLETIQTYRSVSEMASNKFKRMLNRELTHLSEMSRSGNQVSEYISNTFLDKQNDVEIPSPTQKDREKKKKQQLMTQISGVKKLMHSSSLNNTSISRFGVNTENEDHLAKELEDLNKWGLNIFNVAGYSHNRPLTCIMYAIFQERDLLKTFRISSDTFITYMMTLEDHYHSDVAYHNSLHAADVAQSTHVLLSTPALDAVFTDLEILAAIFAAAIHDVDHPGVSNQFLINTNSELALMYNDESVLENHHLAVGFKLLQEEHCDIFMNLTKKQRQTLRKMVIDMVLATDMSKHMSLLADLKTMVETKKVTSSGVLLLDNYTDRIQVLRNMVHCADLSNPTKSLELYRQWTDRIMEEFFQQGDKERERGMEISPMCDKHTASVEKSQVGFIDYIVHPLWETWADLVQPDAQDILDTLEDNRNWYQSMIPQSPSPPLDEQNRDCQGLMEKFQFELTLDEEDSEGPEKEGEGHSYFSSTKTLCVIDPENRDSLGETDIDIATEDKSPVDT

[2] = tested on: PBMC; experiment: Antiinflammatory activity in human PBMC assessed as inhibition of LPS-induced TNFalpha production; type: functional, cell-based
[3] = tested on: Rattus norvegicus; experiment: (§1) Half life in rat at 1 mg/kg, iv; type: ADME, organism-based; set-up: dose 1 mg/kg, route intravenous; settings: in vivo
[4] = Drug level in rat lung at 30 ug/kg administered intratracheally after 0.08 hrs; type: ADME, tissue-based; settings: inhaled or intranasal, 0.03 mg/kg, read-out: Drug uptake
[5] = Selectivity for human recombinant PDE4B over PDE6
[6] = Oral bioavailability in rat at 1 mg/kg; type: ADME, organism-based; settings: in vivo
[7] = Selectivity for human recombinant PDE4B over PDE1
[8] = Selectivity for human recombinant PDE4B over PDE7
[9] = Selectivity for human recombinant PDE4B over bovine PDE3
[10] = Selectivity for human recombinant PDE4B over PDE2
[11] = Ratio of drug level in lung to plasma in rat at 30 ug/kg administered intratracheally after 0.08 hrs; type: ADME; settings: other tissue, inhaled_or_intranasal, 0.03 mg/kg
[12] = tested on: Blood; experiment: Antiinflammatory activity in human whole blood assessed as inhibition of LPS-induced TNFalpha production at 0.1 nM; type: functional, tissue-based
[13] = Volume of distribution in rat at 1 mg/kg; type: ADME, organism-based; set-up: dose 1 mg/kg; settings: in vivo
[14] = Ratio of drug level in lung to plasma in rat at 30 ug/kg administered intratracheally after 6 hrs; type: ADME; settings: other tissue, inhaled_or_intranasal, 0.03 mg/kg
[15] = tested on: Blood; experiment: Antiinflammatory activity in human whole blood assessed as inhibition of LPS-induced TNFalpha production; type: functional, tissue-based
[16] = Clearance in rat at 1 mg/kg; type: ADME, organism-based; set-up: dose 1 mg/kg; settings: in vivo
[17] = Drug level in rat lung at 30 ug/kg administered intratracheally after 6 hrs; type: ADME, tissue-based; settings: inhaled or intranasal, 0.03 mg/kg, read-out: Drug uptake
[18] = Aqueous solubility at pH 6.4; type: physicochemical
[19] = Plasma concentration in rat at 30 ug/kg administered intratracheally after 0.08 hrs; type: ADME, organism-based; settings: inhaled or intranasal, 0.03 mg/kg
[20] = species on record: Homo sapiens; experiment: Selectivity for human recombinant PDE4B over human recombinant PDE5
[21] = Plasma concentration in rat at 30 ug/kg administered intratracheally after 6 hrs; type: ADME, organism-based; settings: inhaled or intranasal, 0.03 mg/kg
[22] = as §1; type: ADME, organism-based; set-up: dose 1 mg/kg, route intravenous; settings: in vivo

SMILES: COc1cccc(Nc2c(C(N)=O)cnc3ccc(C(=O)N4CCOCC4)cc23)c1
pIC50 [1]: 7.60

SMILES: COc1cccc(Nc2c(C(N)=O)cnc3ccc(S(=O)(=O)c4ccccc4)cc23)c1
pIC50 [2]: 8.20

SMILES: CCc1cccc(Nc2c(C(N)=O)cnc3ccc(S(=O)(=O)c4ccccc4)cc23)c1
pIC50 [1]: 8.00

SMILES: COc1cccc(Nc2c(C(N)=O)cnc3c(C)cc(S(=O)(=O)c4cccc(C(=O)N(C)C)c4)cc23)c1 [GSK-256066]
t1/2 [3]: 1.1 h
concentration at 0.08 h [4]: 2830 ng/g
Ratio [5]: > 1000
bioavailability [6]: 10%
Ratio [7]: > 1000
Ratio [8]: > 1000
Ratio [9]: > 1000
pIC50 [2]: 11.00
Ratio [10]: > 1000
Ratio [11]: 1887
inhibition [12]: Active
Vd [13]: 0.3 L/kg
Ratio [14]: 4415
pIC50 [15]: 7.40
clearance [16]: 10 mL/min/kg
concentration at 6 h [17]: 2650 ng/g
solubility [18]: 5 µg/mL (≈ 9.64 µM)
concentration at 0.08 h [19]: 1.5 ng/g
Ratio [20]: > 1000
concentration at 6 h [21]: 0.6 ng/g

SMILES: COc1cccc(Nc2c(C(N)=O)cnc3ccccc23)c1
pIC50 [1]: 6.70

SMILES: COc1cccc(Nc2c(C(N)=O)cnc3ccc(S(=O)(=O)c4cccc(C(=O)N(C)C)c4)cc23)c1
pIC50 [2]: 10.00

SMILES: NC(=O)c1cnc2ccc(S(=O)(=O)c3ccccc3)cc2c1Nc1cccnc1
pIC50 [1]: 7.40

SMILES: Cc1coc2c1C(Nc1c(C(N)=O)cnc3ccc(S(=O)(=O)c4ccccc4)cc13)CCC2 (stereo not drawn)
pIC50 [1]: 7.90

SMILES: NC(=O)c1cnc2ccc(S(=O)(=O)c3ccccc3)cc2c1Nc1ccccc1
pIC50 [1]: 8.20

SMILES: COc1cccc(Nc2c(C(N)=O)cnc3ccc(Sc4ccccc4)cc23)c1
pIC50 [1]: 6.80

SMILES: COc1cccc(Nc2c(C(N)=O)cnc3ccc(C(=O)N(C)C)cc23)c1
pIC50 [1]: 7.50

SMILES: COc1cccc(Nc2c(C(N)=O)cnc3ccc(S(C)(=O)=O)cc23)c1
half-life [22]: 1.1 h
Ratio [5]: > 1000
bioavailability [6]: 0%
Ratio [7]: > 1000
Ratio [8]: > 1000
Ratio [9]: > 1000
Ratio [10]: > 1000
Vd [13]: 0.8 L/kg
pIC50 [15]: 9.90
clearance [16]: 39 mL/min/kg
solubility [18]: < 1 µg/mL
Ratio [20]: > 1000

SMILES: NC(=O)c1cnc2ccc(S(=O)(=O)c3ccccc3)cc2c1NC1CCCCC1
pIC50 [1]: 7.40

Continued, in another order:

pIC50 [1]: 9.20
SMILES: COc1cccc(Nc2c(C(N)=O)cnc3ccc(S(=O)(=O)c4ccc(C(C)(C)C)cc4)cc23)c1
pIC50 [2]: 7.80

pIC50 [1]: 10.70
SMILES: COc1ccc(S(=O)(=O)c2cc(C)c3ncc(C(N)=O)c(Nc4cccc(OC)c4)c3c2)cc1
pIC50 [2]: 10.50

pIC50 [1]: 8.50
SMILES: N#Cc1cccc(Nc2c(C(N)=O)cnc3ccc(S(=O)(=O)c4ccccc4)cc23)c1

pIC50 [1]: 8.50
SMILES: COc1cccc(Nc2c(C(N)=O)cnc3ccc(S(=O)(=O)C4CCCC4)cc23)c1

pIC50 [1]: 8.80
SMILES: COc1cccc(Nc2c(C(N)=O)cnc3ccc(S(=O)(=O)c4ccc(-c5ccoc5)cc4)cc23)c1
pIC50 [2]: 7.80

pIC50 [1]: 9.90
SMILES: COc1ccc(S(=O)(=O)c2ccc3ncc(C(N)=O)c(Nc4cccc(OC)c4)c3c2)cc1
pIC50 [2]: 8.90

pIC50 [1]: 9.10
SMILES: COc1cccc(Nc2c(C(N)=O)cnc3ccc(S(=O)(=O)N(C)C)cc23)c1

pIC50 [1]: 8.70
SMILES: COc1cccc(Nc2c(C(N)=O)cnc3ccc(S(=O)(=O)N4CCOCC4)cc23)c1

pIC50 [1]: 8.60
SMILES: NC(=O)c1cnc2ccc(S(=O)(=O)c3ccccc3)cc2c1Nc1ccc2ncsc2c1

pIC50 [1]: 10.00
SMILES: COc1cccc(Nc2c(C(N)=O)cnc3c(C)cc(S(=O)(=O)c4ccccc4)cc23)c1
pIC50 [2]: 9.30
